Test results published in publication PMC5281649 (European Journal of Nuclear Medicine and Molecular Imaging, 2016).
Where two headings read alike, the source gives them in different places.

Assays:
[1] = parameters: method as in PMID 22451094; conditions: elderly subjects; steady-state conditions; plasma; cited from earlier work
[2] = Pre-PET sembragiline plasma concentration at steady state (LC-MS/MS); assay type: in vivo, human
brain MAO-B enzyme = target: T1, brain MAO-B enzyme (Homo sapiens, UniProt P27338); assay: PET with [11C]-L-deprenyl-D2: brain MAO-B inhibition after repeated oral sembragiline; assay type: in vivo; conditions: for receptor occupancy at 0.2 mg: 168 h; for receptor occupancy at 0.2 mg / receptor occupancy at 1 mg: EC subjects, read-out: Occ (MAO-B occupancy); for receptor occupancy at 0.2 mg / receptor occupancy at 1 mg / [11C]-L-deprenyl-D2 λk3 post-dose: mean (range); for receptor occupancy at 1 mg: 336 h; for [11C]-L-deprenyl-D2 λk3 post-dose: AD patients
T1 sequence (P27338 1-520): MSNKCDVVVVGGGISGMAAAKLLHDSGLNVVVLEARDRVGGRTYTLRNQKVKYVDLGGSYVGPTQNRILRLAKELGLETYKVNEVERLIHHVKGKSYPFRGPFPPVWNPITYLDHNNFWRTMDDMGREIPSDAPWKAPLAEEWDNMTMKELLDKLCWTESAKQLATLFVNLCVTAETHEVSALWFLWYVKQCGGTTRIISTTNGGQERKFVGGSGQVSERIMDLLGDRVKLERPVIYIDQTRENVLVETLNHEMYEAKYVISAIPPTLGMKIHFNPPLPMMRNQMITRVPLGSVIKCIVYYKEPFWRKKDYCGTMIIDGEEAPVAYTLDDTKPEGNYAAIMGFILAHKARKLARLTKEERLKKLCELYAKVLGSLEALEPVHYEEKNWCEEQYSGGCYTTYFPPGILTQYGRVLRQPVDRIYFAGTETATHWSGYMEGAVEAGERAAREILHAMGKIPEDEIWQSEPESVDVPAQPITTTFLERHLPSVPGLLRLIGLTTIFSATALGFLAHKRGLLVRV
Experimental: The first dose was administered at the study centre under the supervision of study personnel. On subsequent study days, treatment compliance was assured by intake logs and tablet counting.
At baseline, each subject underwent a PET scan using [^11C]-L-deprenyl-D2 to measure MAO-B enzyme activity in the brain prior to their first dose of allocated medication. The second scan was performed at trough concentrations at steady state prior to the last drug administration. Before each scan, a cannula was inserted into a radial artery and another into an antecubital vein. A sterile phosphate buffer (pH = 7.4) containing radioligand was injected as a bolus over several seconds into the cubital vein.
A transmission scan was performed using three rotating ^68Ge rod sources. [^11C]-L-Deprenyl-D2 was injected intravenously as a bolus, and emission data were acquired over 63 min using the ECAT EXACT high-resolution system (Siemens Medical Solutions, Malvern, PA, USA). The injected radioactivity was targeted to approximately 300 MBq. The injected mass of deprenyl was to be ≤100 μg, and ≥50–100-fold lower than the typical administered dose of 5–10 mg deprenyl to patients with Parkinson’s disease. The framing was as follows: 9 frames x 10 s, 2 frames x 15 s, 3 frames x 20 s, 4 frames x 30 s, 4 frames x 60 s, 4 frames x 180 s, 7 frames x 360 s. Images were reconstructed using the standard filtered back-projection, with a 2-mm Hanning filter, a zoom factor of 2.17, and a 128 × 128 matrix, and were corrected for attenuation and scatter. A summation PET image was created for each subject and PET session by averaging across all frames. Time–activity curves were then extracted from selected ROIs.
Arterial blood samples were used for measurement of radioactivity in whole blood and plasma, as well as to determine the parent fraction of the radioligand, using a reversed-phase high-performance liquid chromatography method (Karolinska University Hospital, Solna, Stockholm, Sweden). A catheter was inserted in the radial artery, and arterial blood was collected continuously for 10 min using an automated blood sampling system at a speed of 5 mL/min. Discrete blood samples were drawn approximately 10, 15, 20, 30, 45 and 60 min after each injection of [^11C]-L-deprenyl-D2.
Time–activity data were analysed as previously described. Briefly, [^11C]-L-deprenyl-D2 was quantified by the two-tissue compartment model with three rate constants (K 1, k 2, k 3) using the PMOD 3.3 software package (PMOD Group, Zurich, Switzerland), where the tissue compartments represent the free plus non-specifically bound and specifically bound radiotracer. The outcome measure λk 3 was calculated as (K 1/k 2)*k 3, using a non-linear approach, and was used as an estimate for specific binding to MAO-B that was independent of perfusion. […] This is because λk3 is independent of perfusion and has better reproducibility than k3 alone.

[3] = 5 mg loading day 1 then 0.2 mg q.d. days 2–7, frontal cortex, N = 3
[4] = 5 mg loading day 1 then 0.2 mg q.d. days 2–7, hippocampus, N = 3
[5] = 5 mg loading day 1 then 0.2 mg q.d. days 2–7, parietal cortex, N = 3
[6] = 5 mg loading day 1 then 0.2 mg q.d. days 2–7, striatum, N = 3
[7] = 5 mg loading day 1 then 0.2 mg q.d. days 2–7, thalamus, N = 3
[8] = 5 mg loading day 1 then 0.2 mg q.d. days 2–7, whole brain, N = 3

Pre-PET sembragiline plasma concentration at steady state, mean ([2]; AD patients, 1 mg q.d. for 14 days, N 3): 41.9 ng/mL
Pre-PET sembragiline plasma concentration at steady state, mean ([2]; AD patients, 5 mg loading day 1 then 0.1 mg q.d. Day 2–15, N 2): 2.55 ng/mL
Pre-PET sembragiline plasma concentration at steady state, mean ([2]; AD patients, 5 mg loading day 1 then 0.2 mg q.d. Day 2–7, N 3): 7.06 ng/mL
Pre-PET sembragiline plasma concentration at steady state, mean ([2]; AD patients, 5 mg q.d. for 6–9 days, N 2): 96.7 ng/mL
Pre-PET sembragiline plasma concentration at steady state, mean ([2]; EC subjects, 1 mg q.d. for 14 days, N 3): 33.9 ng/mL
Pre-PET sembragiline plasma concentration at steady state, mean ([2]; EC subjects, 5 mg loading day 1 then 0.2 mg q.d. Day 2–7, N 3): 3.29 ng/mL
MAO-B inhibition at trough (mean values) (brain MAO-B enzyme; 1 mg, across all brain ROIs and study populations): 75–86%
MAO-B inhibition (overall range) (brain MAO-B enzyme; 1 mg, six brain ROIs and study populations, overall): 71–88%
MAO-B inhibition (mean values) (brain MAO-B enzyme; 5-mg dose, across brain ROIs): 76–86%
receptor occupancy at 0.2 mg (brain MAO-B enzyme; [3]): 51.7%
receptor occupancy at 0.2 mg (brain MAO-B enzyme; [4]): 51.6%
receptor occupancy at 0.2 mg (brain MAO-B enzyme; [5]): 50.7%
receptor occupancy at 0.2 mg (brain MAO-B enzyme; [6]): 56.1%
receptor occupancy at 0.2 mg (brain MAO-B enzyme; [7]): 53.7%
receptor occupancy at 0.2 mg (brain MAO-B enzyme; [8]): 49.1%
receptor occupancy at 1 mg (brain MAO-B enzyme; 1 mg q.d. for 14 days, frontal cortex, N = 3): 76.2%
receptor occupancy at 1 mg (brain MAO-B enzyme; 1 mg q.d. for 14 days, hippocampus, N = 3): 83.9%
receptor occupancy at 1 mg (brain MAO-B enzyme; 1 mg q.d. for 14 days, parietal cortex, N = 3): 76.1%
receptor occupancy at 1 mg (brain MAO-B enzyme; 1 mg q.d. for 14 days, striatum, N = 3): 84.7%
receptor occupancy at 1 mg (brain MAO-B enzyme; 1 mg q.d. for 14 days, thalamus, N = 3): 85.7%
receptor occupancy at 1 mg (brain MAO-B enzyme; 1 mg q.d. for 14 days, whole brain, N = 3): 75.4%
[11C]-L-deprenyl-D2 λk3 post-dose (brain MAO-B enzyme; 1 mg q.d. for 14 days, frontal cortex, N = 2): 0.04 (0.03–0.04)
[11C]-L-deprenyl-D2 λk3 post-dose (brain MAO-B enzyme; 1 mg q.d. for 14 days, hippocampus, N = 2): 0.05 (0.05–0.05)
[11C]-L-deprenyl-D2 λk3 post-dose (brain MAO-B enzyme; 1 mg q.d. for 14 days, parietal cortex, N = 2): 0.04 (0.03–0.05)
[11C]-L-deprenyl-D2 λk3 post-dose (brain MAO-B enzyme; 1 mg q.d. for 14 days, striatum, N = 2): 0.04 (0.04–0.05)
[11C]-L-deprenyl-D2 λk3 post-dose (brain MAO-B enzyme; 1 mg q.d. for 14 days, thalamus, N = 2): 0.04 (0.04–0.04)
[11C]-L-deprenyl-D2 λk3 post-dose (brain MAO-B enzyme; 1 mg q.d. for 14 days, whole brain, N = 2): 0.04 (0.04–0.05)
[11C]-L-deprenyl-D2 λk3 post-dose (brain MAO-B enzyme; 5 mg loading day 1 then 0.1 mg q.d. days 2–15, frontal cortex, N = 2): 0.07 (0.06–0.08)
[11C]-L-deprenyl-D2 λk3 post-dose (brain MAO-B enzyme; 5 mg loading day 1 then 0.1 mg q.d. days 2–15, hippocampus, N = 2): 0.11 (0.10–0.11)
[11C]-L-deprenyl-D2 λk3 post-dose (brain MAO-B enzyme; 5 mg loading day 1 then 0.1 mg q.d. days 2–15, parietal cortex, N = 2): 0.07 (0.07–0.08)
[11C]-L-deprenyl-D2 λk3 post-dose (brain MAO-B enzyme; 5 mg loading day 1 then 0.1 mg q.d. days 2–15, striatum, N = 2): 0.12 (0.11–0.13)
[11C]-L-deprenyl-D2 λk3 post-dose (brain MAO-B enzyme; 5 mg loading day 1 then 0.1 mg q.d. days 2–15, whole brain, N = 2): 0.08 (0.08–0.09)
[11C]-L-deprenyl-D2 λk3 post-dose (brain MAO-B enzyme; [3]): 0.06 (0.05–0.07)
[11C]-L-deprenyl-D2 λk3 post-dose (brain MAO-B enzyme; [4]): 0.07 (0.07–0.08)
[11C]-L-deprenyl-D2 λk3 post-dose (brain MAO-B enzyme; [5]): 0.06 (0.05–0.07)
[11C]-L-deprenyl-D2 λk3 post-dose (brain MAO-B enzyme; [6]): 0.08 (0.08–0.08)
[11C]-L-deprenyl-D2 λk3 post-dose (brain MAO-B enzyme; [7]): 0.07 (0.07–0.07)
[11C]-L-deprenyl-D2 λk3 post-dose (brain MAO-B enzyme; [8]): 0.06 (0.06–0.07)
[11C]-L-deprenyl-D2 λk3 post-dose (brain MAO-B enzyme; 5 mg q.d. for 6–9 days, frontal cortex, N = 2): 0.04 (0.04–0.04)
SMILES: CC(=O)N[C@H]1CC(=O)N(c2ccc(OCc3cccc(F)c3)cc2)C1 [sembragiline]
Terminal half-life [1]: 50 to 65 h
